Test results: ChEMBL document CHEMBL4011594, “Discovery and optimization of 2-pyridinone aminal integrase strand transfer inhibitors for the treatment of HIV” (Bioorg Med Chem Lett, 2017)
In brackets after ≈: the same amount, converted by molar mass.

What was measured:
[1] = Oral bioavailability in Beagle dog at 1 mg/kg; type: ADME, organism-based, Canis lupus familiaris; settings: in vivo
[2] = test system: Human immunodeficiency virus type 1 integrase (Human immunodeficiency virus 1), Q7ZJM1 [Q148K]; assay: Inhibition of HIV-1 integrase Q148K mutant strand transfer activity assessed as reduction in viral replication
[3] = test system: Human immunodeficiency virus type 1 integrase (Human immunodeficiency virus 1), Q7ZJM1 [G140S,Q148H]; assay: Inhibition of HIV-1 integrase G140S/Q148H double mutant strand transfer activity assessed as reduction in viral replication
[4] = test system: Human immunodeficiency virus type 1 integrase (Human immunodeficiency virus 1), Q7ZJM1 [E92Q]; assay: Inhibition of HIV-1 integrase E92Q mutant strand transfer activity assessed as reduction in viral replication
[5] = Aqueous solubility of the compound at pH 7; type: physicochemical
[6] = Aqueous solubility of the compound at pH 2; type: physicochemical
[7] = Apparent permeability of the compound; type: physicochemical; settings: not told
[8] = test system: Human immunodeficiency virus 1; assay: Inhibition of wild-type HIV-1 integrase strand transfer activity assessed as reduction in viral replication in presence of 10% normal human serum
[9] = Plasma protein binding in Beagle dog; type: ADME, cell-free, Canis lupus familiaris; settings: read-out: PPB (converted)
[10] = test system: Human immunodeficiency virus type 1 integrase (Human immunodeficiency virus 1), Q7ZJM1 [Q148R]; assay: Inhibition of HIV-1 integrase Q148R mutant strand transfer activity assessed as reduction in viral replication
[11] = Half life in Beagle dog at 0.5 mg/kg, iv or 1 mg/kg, po; type: ADME, organism-based, Canis lupus familiaris; settings: in vivo
[12] = Volume of distribution in Beagle dog at 0.5 mg/kg, iv or 1 mg/kg, po; type: ADME, organism-based, Canis lupus familiaris; settings: in vivo
[13] = test system: Human immunodeficiency virus type 1 integrase (Human immunodeficiency virus 1), Q7ZJM1 [Y143R]; assay: Inhibition of HIV-1 integrase Y143R mutant strand transfer activity assessed as reduction in viral replication
[14] = Clearance in Beagle dog at 0.5 mg/kg, iv or 1 mg/kg, po; type: ADME, organism-based, Canis lupus familiaris; settings: in vivo
[15] = test system: Human immunodeficiency virus type 1 integrase (Human immunodeficiency virus 1), Q7ZJM1 [N155H]; assay: Inhibition of HIV-1 integrase N155H mutant strand transfer activity assessed as reduction viral replication
[16] = test system: Human immunodeficiency virus 1; assay: Inhibition of HIV-1 integrase strand transfer activity assessed as reduction in viral replication in presence of 50% normal human serum

## N#Cc1cccc2c1[C@]1(CC2)NC(=O)c2c3c(c(O)c(=O)n21)C(=O)N(Cc1ccc(F)c(Cl)c1)CC3
[1]
  bioavailability: 40%
[2]
  IP: 9 nM
[3]
  IP: 18 nM
[4]
  IP: 18 nM
[5]
  solubility: 10 µM (≈ 5.05 µg/mL)
[6]
  solubility: 8 µM (≈ 4.04 µg/mL)
[7]
  Papp: 7 ×10⁻⁶ cm/s
[8]
  IP: 4 nM
[9]
  fraction unbound: 0.028
[10]
  IP: 7 nM
[11]
  half-life: 10.6 h
[12]
  Vd: 0.9 L/kg
[13]
  IP: 4 nM
[14]
  clearance: 2.4 mL/min/kg
[15]
  IP: 13 nM
[16]
  IP: 18 nM
